Measurements: ChEMBL document CHEMBL3045585, “Combinatorial approach: identification of potential antifungals from triazole minilibraries” (2011)
In brackets after ≈: the same amount, converted by molar mass.

Assays:
Format in all cases: functional
Fusarium oxysporum = assay: Antifungal activity against Fusarium oxysporum NCIM 1008 by serial dilution method
Aspergillus flavus = assay: Antifungal activity against Aspergillus flavus NCIM 536 by serial dilution method
Penicillium chrysogenum = assay: Antifungal activity against Penicillium chrysogenum NCIM 725 by serial dilution method
Aspergillus niger = assay: Antifungal activity against Aspergillus niger NCIM 945 by serial dilution method

COc1ccc(/C=N/n2c(SCc3ccccc3)nnc2-c2ccccc2N)cc1
MIC (Fusarium oxysporum): 250 µg/mL (≈ 602 µM) | MIC (Aspergillus flavus): 32 µg/mL (≈ 77 µM) | MIC (Penicillium chrysogenum): 125 µg/mL (≈ 301 µM) | MIC (Aspergillus niger): 62 µg/mL (≈ 149 µM)

Nc1ccccc1-c1nnc(SCc2ccccc2)n1/N=C/c1ccc(Cl)cc1
MIC (Fusarium oxysporum): 62 µg/mL (≈ 148 µM) | MIC (Aspergillus flavus): 125 µg/mL (≈ 298 µM) | MIC (Penicillium chrysogenum): 31 µg/mL (≈ 73.8 µM) | MIC (Aspergillus niger): 125 µg/mL (≈ 298 µM)

COc1ccc(/C=N/n2c(SCc3ccccc3)nnc2-c2ccncc2)cc1
MIC (Fusarium oxysporum): 250 µg/mL (≈ 623 µM) | MIC (Aspergillus flavus): 250 µg/mL (≈ 623 µM) | MIC (Penicillium chrysogenum): 125 µg/mL (≈ 311 µM) | MIC (Aspergillus niger): 31 µg/mL (≈ 77.2 µM)

CN(C)c1ccc(/C=N/n2c(SCc3ccccc3)nnc2-c2ccccc2N)cc1
MIC (Fusarium oxysporum): 32 µg/mL (≈ 74.7 µM) | MIC (Aspergillus flavus): 125 µg/mL (≈ 292 µM) | MIC (Penicillium chrysogenum): 250 µg/mL (≈ 583 µM) | MIC (Aspergillus niger): 62 µg/mL (≈ 145 µM)
